Results taken from US20200216906A1, “METHODS AND COMPOSITIONS RELATING TO THE DIAGNOSIS AND TREATMENT OF CANCER” (PRESIDENT AND FELLOWS OF HARVARD COLLEGE, priority 2015, published 2020).
“Also recorded” adds a separate entry of the source. Where two headings read alike, the source gives them in different places. Starred links: 1 amine or outer side, 2 acyl side, 3 side chain; linkers in the order of their positions; H or OH if unused. Positions of bridges follow the written chain, without caps; N, C: chain ends. Non-standard residues stand in square brackets, D forms with d. Residues, ends and D or L forms follow the SMILES beside them. Chains are numbered I, II in the order given. Actinocin(9to1) = Cc1c2oc3c(C)ccc(C(=O)[*:1])c3nc-2c(C(=O)[*:2])c(N)c1=O; NMeV = CN[C@H](C(=O)O)C(C)C; Sar = CNCC(=O)O

Tests used:
[1] = test system: Panc02.13 cells expressing vector only (02.13-WT); assay: Kinetic cell growth assay, Panc02.13 cells expressing vector only; type: cell-based, human
Experimental: (§1) Panc02.13 cells were used to express YAPS6A (or vector controls) under sparse and dense cultures. Expression was confirmed by confocal microscopy (data not shown). Suppression of the Hippo pathway by expression of non-phospho, active form of YAP (YAPS6A) sensitized pancreatic cancer cells to gemcitabine and 5-FU (FIGS. 6 and 7). Apoptosis was measured by immunobloting with cleaved caspases 3/7 or PARP. Blots were also stained with anti-β-actin for loading control. The effect of Hippo pathway suppression on gemcitabine and 5-FU senstitization was maintained in 3D spheroid culture (FIG. 8). The effects of eleven cytotoxic drugs on the growth of Panc02.13 cells expressing vector only or YAPS6A construct grown under low or high densities were determined (Table 1).
(§2) The effect of gemcitabine on pancreatic cancer cell growth was studied using a kinetic cell growth assay. Pancreatic cancer cells were plated on 96-well plates (Essen ImageLock, Essen Instruments, MI, US) at varying densities (2-4×10^3 for low density or 15-20×10^3 for high density experiments). Small molecule inhibitors at different doses were added 24 hours after plating and cell confluence was monitored with Incucyte Live-Cell Imaging System and software (Essen Instruments). Confluence was observed every hour for 48-144h or until the control (DMSO only) samples reached 100% confluence.
as §2, with “Kinetic Cell growth assay. The” for “The”, “(2-4X103” for “(2-4×10^3”, “15-20X103” for “15-20×10^3”, “Incucyte™” for “Incucyte”

[2] = test system: Panc02.13 cells expressing YAPS6A construct; assay: Kinetic cell growth assay, Panc02.13 cells expressing YAPS6A; type: cell-based, human; details: for EC50: YAPS6A construct
Experimental: as §1, §2
Cell lines (Panc02.13, Panc10.05 or Miapaca2) were transfected with YAPS6A constructs (Addgene) using Lipofectamine™ (Invitrogen, Carlsbad, Calif.) following the manufacturer's instructions and 48 hour post-transfection selected in 5-10 μg/ml Blasticidin (InvivoGen, San Diego, Calif.). The clones screened for YAPS6A expression by Western blot. Stable cell lines were maintained in complete medium and 5 μg/ml Blasticidin.
as §2, with “Kinetic Cell growth assay. The” for “The”, “(2-4X103” for “(2-4×10^3”, “15-20X103” for “15-20×10^3”, “Incucyte™” for “Incucyte”

[3] = test system: Panc02.13 cells expressing the YAPS6A mutant; assay: 3D spheroid growth assay, Panc02.13 cells expressing YAPS6A; type: cell-based, human; details: YAP activity increased
[4] = test system: pancreatic cancer cell lines; assay: Kinetic cell growth assay, panel of pancreatic cancer cell lines; type: cell-based, human; details: for Dependence of cellular response on cell crowding: seven PDAC cell lines, threshold >100 fold difference in EC50; for Density dependence of efficacy: seven pancreatic cancer cell lines, sparse and dense conditions
Experimental: as §2
FIG. 20A illustrates the kinetic cell growth assay to determine the effect of gemcitabine in a panel of pancreatic cancer cell lines. Cells are plated at low crowding conditions (10-25% confluence) and 24 hours later exposed to gemcitabine in a dose-dependent manner. They are imaged every 1-3 hours until control (vehicle) treated cells reach 100% confluence. This assay is not confounded by the fact that the time required for each cell line to reach 100% confluence may be very different (as the cell lines have different doubling times). A dose response effect of gemcitabine on cell growth for 16 pancreatic cancer cell lines is shown in FIGS. 20B, 3, 31A-31C and 28, where the range of previous studies is also shown. […] Similar responses to gemcitabine were found in liver cancer cell lines (Huh7 and FOCUS) and untransformed (HEK293) cell lines (FIGS. 3, 31A-31C).
as §2, with “Kinetic Cell growth assay. The” for “The”, “(2-4X103” for “(2-4×10^3”, “15-20X103” for “15-20×10^3”, “Incucyte™” for “Incucyte”

[5] = test system: Panc02.13 cells; assay: 3D spheroid growth assay, Panc02.13 (GFP/parental) cells; details: for Efficacy in inhibiting cell growth when the Hippo pathway was not inhibited: Hippo-YAP pathway active; for Inhibition in high density growth conditions: 3D-spheroid screen
Experimental: Cancer cell lines were seeded at a 5×10^3 cells per well in a 96-well ultra-low adherence plates (Costar) and briefly spun down at 1000 rpm for 5 minutes. After 2 days, cells were treated with small molecule inhibitors at varying concentrations. Growth of spheroids was monitored using live cell imaging every 2-3 hours for 4-7 days in the Incucyte FLR™ system (Essen) or as end point assay using CellTiter-Glo™ luminescent cell viability assay (Promega).
A dose response curve for each inhibitor is calculated based on control (no inhibitor/DMSO) treated wells.
Cancer cell lines were seeded at a 5×10^3 cells per well in a 96-well ultra-low adherence plates (Costar) and briefly spun down at 1000 rpm for 5 minutes. After 2 days, cells were treated with small molecule inhibitors at varying concentrations. Growth of spheroids was monitored using live cell imaging every 2-3 hours for 4-7 days in the Incucyte ZOOM™ system (Essen) or as end point assay using CellTiter-Glo™ luminescent cell viability assay (Promega).

[6] = Homo sapiens, high density, read-out: High density (EC50, nM) 02.13-WT
[7] = Homo sapiens, low density, read-out: Low density (EC50, nM) 02.13-WT
[8] = Homo sapiens, high density, read-out: High density (EC50, nM) 02.13-YAPS6A
[9] = Homo sapiens, low density, read-out: Low density (EC50, nM) 02.13-YAPS6A
[10] = high density, read-out: High density (EC50, nM) 02.13-WT
[11] = low density, read-out: Low density (EC50, nM) 02.13-WT
[12] = high density, read-out: High density (EC50, nM) 02.13-YAPS6A
[13] = low density, read-out: Low density (EC50, nM) 02.13-YAPS6A

## O=c1[nH]cc(F)c(=O)[nH]1 [5-FU, 5-fluorouracil]
[1]; [6]
  EC50: > 10000 nM
[1]; [7]
  EC50: 350 nM
[2]; [8]
  EC50: 3000 nM
[2]; suppression of the Hippo pathway, high cell density
  Sensitization by expression of YAPS6A: sensitized
[3]
  Efficacy in inhibiting cell growth when the Hippo pathway was inhibited: increased efficacy in inhibiting cell growth

## CC[C@@]1(O)C(=O)OCc2c1cc1n(c2=O)Cc2cc3ccccc3nc2-1 [Camtothecin, Camptothecin]
[1]; [6]
  EC50: 15 nM
[1]; [7]
  EC50: 5.2 nM
[2]; [8]
  EC50: 9 nM
[2]; [9]
  EC50: 6 nM
[4]
  Dependence of cellular response on cell crowding: weak or no correlation with cell density
  Density dependence of efficacy: density-dependent
[3]
  Efficacy in inhibiting cell growth when the Hippo pathway was inhibited: increased efficacy in inhibiting cell growth

## CC(=O)O[C@@]12CO[C@@H]1C[C@H](O)[C@@]1(C)C(=O)[C@H](O)C3=C(C)[C@@H](OC(=O)[C@H](O)[C@@H](NC(=O)OC(C)(C)C)c4ccccc4)C[C@@](O)([C@@H](OC(=O)c4ccccc4)[C@H]21)C3(C)C [Docetaxel]
[1]; [6]
  EC50: 2400 nM
[1]; [7]
  EC50: 3.5 nM
[2]; [8]
  EC50: 4820 nM
[2]; [9]
  EC50: 7 nM
[4]
  Dependence of cellular response on cell crowding: weak or no correlation with cell density
  Density dependence of efficacy: largely density independent

## CO[C@H]1C[C@@H]2CC[C@@H](C)[C@@](O)(O2)C(=O)C(=O)N2CCCC[C@H]2C(=O)O[C@H]([C@H](C)C[C@@H]2CC[C@@H](OCCO)[C@H](OC)C2)CC(=O)[C@H](C)/C=C(\C)[C@@H](O)[C@@H](OC)C(=O)[C@H](C)C[C@H](C)/C=C/C=C/C=C/1C [Everolimus]
[5]
  Efficacy in inhibiting cell growth when the Hippo pathway was not inhibited: demonstrated efficacy at higher doses

## CCc1c2c(nc3ccc(OC(=O)N4CCC(N5CCCCC5)CC4)cc13)-c1cc3c(c(=O)n1C2)COC(=O)[C@]3(O)CC [Irrenotecan]
[1]; [10]
  EC50: 8500 nM
[1]; [11]
  EC50: 1070 nM
[2]; [12]
  EC50: 1650 nM
[2]; [13]
  EC50: 1700 nM
[3]
  Efficacy in inhibiting cell growth when the Hippo pathway was inhibited: increased efficacy in inhibiting cell growth; also recorded: particularly significant inhibitory activity

## O=C1[O][Pt]2([NH][C@@H]3CCCC[C@H]3[NH]2)[O]C1=O [Oxaliplatin]
[1]; [10]
  EC50: 5200 nM
[1]; [11]
  EC50: 937 nM
[2]; [12]
  EC50: 3180 nM
[2]; [13]
  EC50: 5890 nM
[4]
  Dependence of cellular response on cell crowding: weak or no correlation with cell density
  Density dependence of efficacy: largely density independent

## CC(=O)O[C@H]1C(=O)[C@@]2(C)[C@H]([C@H](OC(=O)c3ccccc3)[C@]3(O)C[C@H](OC(=O)[C@H](O)[C@@H](NC(=O)c4ccccc4)c4ccccc4)C(C)=C1C3(C)C)[C@]1(OC(C)=O)CO[C@@H]1C[C@@H]2O [Paclitaxel]
[1]; [6]
  EC50: 1670 nM
[1]; [7]
  EC50: 3 nM
[2]; [9]
  EC50: 3 nM
[4]
  Dependence of cellular response on cell crowding: weak or no correlation with cell density
  Density dependence of efficacy: largely density independent

## CC(C)C[C@H](NC(=O)[C@H](Cc1ccccc1)NC(=O)c1cnccn1)B(O)O [bortezomib]
[5]
  Efficacy in inhibiting cell growth when the Hippo pathway was not inhibited: effective in preventing cancer cell growth independent of the state of Hippo-YAP signaling pathway activity; also recorded: efficacious in inhibiting cell growth

## CC(C)C[C@H](NC(=O)[C@H](CCc1ccccc1)NC(=O)CN1CCOCC1)C(=O)N[C@@H](Cc1ccccc1)C(=O)N[C@@H](CC(C)C)C(=O)[C@@]1(C)CO1 [carfilzomib]
[5]
  Inhibition in high density growth conditions: significant inhibition
  Efficacy in inhibiting cell growth when the Hippo pathway was not inhibited: effective in preventing cancer cell growth independent of the state of Hippo-YAP signaling pathway activity; also recorded: efficacious in inhibiting cell growth

## Nc1nc(Cl)nc2c1ncn2[C@@H]1O[C@H](CO)[C@@H](O)[C@@H]1F [clofarabine]
[3]
  Efficacy in inhibiting cell growth when the Hippo pathway was inhibited: increased efficacy in inhibiting cell growth

## Nc1ccn([C@@H]2O[C@H](CO)[C@@H](O)[C@@H]2O)c(=O)n1 [cytarabine]
[3]
  Efficacy in inhibiting cell growth when the Hippo pathway was inhibited: increased efficacy in inhibiting cell growth

## Cc1c2oc3c(C)ccc(C(=O)N[C@@H]4C(=O)N[C@H](C(C)C)C(=O)N5CCC[C@H]5C(=O)N(C)CC(=O)N(C)[C@@H](C(C)C)C(=O)O[C@@H]4C)c3nc-2c(C(=O)N[C@@H]2C(=O)N[C@H](C(C)C)C(=O)N3CCC[C@H]3C(=O)N(C)CC(=O)N(C)[C@@H](C(C)C)C(=O)O[C@@H]2C)c(N)c1=O [dactinomycin] (I: T[dV]P[Sar][NMeV] / II: T[dV]P[Sar][NMeV]; ester I:1-I:C, II:1-II:C; linker I:N-II:N via Actinocin(9to1))
[5]
  Inhibition in high density growth conditions: significant inhibition
  Efficacy in inhibiting cell growth when the Hippo pathway was not inhibited: effective in preventing cancer cell growth independent of the state of Hippo-YAP signaling pathway activity; also recorded: efficacious in inhibiting cell growth

## COc1cccc2c1C(=O)c1c(O)c3c(c(O)c1C2=O)C[C@@](O)(C(C)=O)C[C@@H]3O[C@H]1C[C@H](N)[C@H](O)[C@H](C)O1 [daunorubicin]
[3]
  Efficacy in inhibiting cell growth when the Hippo pathway was inhibited: increased efficacy in inhibiting cell growth
[5]
  Efficacy in inhibiting cell growth when the Hippo pathway was not inhibited: efficacious in inhibiting cell growth

## CNC(=O)c1ccc(N2C(=S)N(c3ccc(C#N)c(C(F)(F)F)c3)C(=O)C2(C)C)cc1F [enzalutamide]
[5]
  Efficacy in inhibiting cell growth when the Hippo pathway was not inhibited: effective in preventing cancer cell growth independent of the state of Hippo-YAP signaling pathway activity; also recorded: efficacious in inhibiting cell growth

## Cc1ccc(NC(=O)c2ccc(CN3CCN(C)CC3)cc2)cc1Nc1nccc(-c2cccnc2)n1 [imatinib]
[3]
  Efficacy in inhibiting cell growth when the Hippo pathway was inhibited: increased efficacy in inhibiting cell growth

## C/C(=C\c1csc(C)n1)[C@@H]1C[C@@H]2O[C@]2(C)CCC[C@H](C)[C@H](O)[C@@H](C)C(=O)C(C)(C)[C@@H](O)CC(=O)N1 [ixabepilone]
[3]
  Efficacy in inhibiting cell growth when the Hippo pathway was inhibited: increased efficacy in inhibiting cell growth

## S=c1nc[nH]c2nc[nH]c12 [mercaptopurine]
[3]
  Efficacy in inhibiting cell growth when the Hippo pathway was inhibited: increased efficacy in inhibiting cell growth

## CO[C@@]12[C@H](COC(N)=O)C3=C(C(=O)C(C)=C(N)C3=O)N1C[C@@H]1N[C@@H]12 [mitomycin]
[3]
  Efficacy in inhibiting cell growth when the Hippo pathway was inhibited: increased efficacy in inhibiting cell growth

## COC(=O)C[C@](O)(CCCC(C)(C)O)C(=O)O[C@@H]1C(OC)=C[C@]23CCCN2CCc2cc4c(cc2[C@H]13)OCO4 [omacetaxine mepesuccinate]
[5]
  Efficacy in inhibiting cell growth when the Hippo pathway was not inhibited: effective in preventing cancer cell growth independent of the state of Hippo-YAP signaling pathway activity; also recorded: efficacious in inhibiting cell growth

## Nc1nc2nc[nH]c2c(=S)[nH]1 [tioguanine]
[3]
  Efficacy in inhibiting cell growth when the Hippo pathway was inhibited: increased efficacy in inhibiting cell growth

## C1CN1c1nc(N2CC2)nc(N2CC2)n1 [triethylenemelamine]
[5]
  Efficacy in inhibiting cell growth when the Hippo pathway was not inhibited: demonstrated efficacy at higher doses

## CCCCC(=O)OCC(=O)[C@]1(O)Cc2c(O)c3c(c(O)c2[C@@H](O[C@H]2C[C@H](NC(=O)C(F)(F)F)[C@H](O)[C@H](C)O2)C1)C(=O)c1c(OC)cccc1C3=O [valrubicin]
[3]
  Efficacy in inhibiting cell growth when the Hippo pathway was inhibited: increased efficacy in inhibiting cell growth
[5]
  Efficacy in inhibiting cell growth when the Hippo pathway was not inhibited: efficacious in inhibiting cell growth

## Epothilone
[1]; [10]
  EC50: 20 nM
[1]; [11]
  EC50: < 1 nM
[2]; [12]
  EC50: 767 nM
[2]; [13]
  EC50: < 1 nM
